Laboratory results taken from US6670339B1, “Use of sulfated oligosaccharides in lowering blood triglyceride levels” (The Australian National University, priority 1997, dated 2003).

What was measured:
[1] = molecular target: T1, bovine milk lipoprotein lipase (Bos taurus, UniProt P11151); experiment: Inhibition of binding of biotinylated heparin/heparan sulfate to immobilised lipoprotein lipase
T1 construct: purified from bovine milk as previously described; from tissue; host or cells: bovine milk
T1 sequence (P11151 29-478): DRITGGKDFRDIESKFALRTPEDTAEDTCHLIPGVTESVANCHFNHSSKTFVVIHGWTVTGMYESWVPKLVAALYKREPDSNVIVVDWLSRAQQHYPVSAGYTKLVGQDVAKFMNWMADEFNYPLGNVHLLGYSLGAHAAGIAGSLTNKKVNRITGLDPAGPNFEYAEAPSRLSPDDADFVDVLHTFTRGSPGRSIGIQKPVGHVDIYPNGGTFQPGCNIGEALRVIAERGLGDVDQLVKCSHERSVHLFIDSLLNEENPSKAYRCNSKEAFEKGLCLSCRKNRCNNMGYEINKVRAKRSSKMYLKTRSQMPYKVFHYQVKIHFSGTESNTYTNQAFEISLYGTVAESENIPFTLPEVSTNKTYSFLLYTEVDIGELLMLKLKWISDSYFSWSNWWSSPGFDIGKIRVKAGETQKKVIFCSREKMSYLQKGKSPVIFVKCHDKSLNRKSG
Method: As a more rapid and direct means of measuring the ability of different sulfated oligosaccharides to release lipoprotein lipase from the endothelium, an in vitro assay for this effect was developed. The assay involved immobilising lipoprotein lipase (10 μg/ml in PBS, 15 hr, 4° C.), purified from bovine milk as previously described^12, in 96 well plastic microplates (50 μl/well). Non-specific binding sites were then blocked by the addition of 200 μl/well of PBS containing 1% (w/v) bovine serum albumin (BSA) for 2 hr at 4° C. Following three washes with 200 μl/well of PBS/0.05% Tween 20 (PBST), 50 μl/well of either biotinylated bovine lung heparin or biotinylated porcine mucosal heparan sulfate (Sigma), used at either 1 or 10 μg/ml, was added and incubated for 2 hr at 4° C. Following three washes with PBST, 50 μl/well of europeum-streptavidin (1 ng/ml in PBS/1% BSA) was added for 1 hr at 4° C., the plate again washed three times with PBST, enhancement solution (50 μl/well) added and bound europeum measured by time resolved fluorescence detection using a Delfia Research Fluorometer (Wallac, Turku, Finland). Inhibition assays measured the ability of different sulfated oligosacchandes to inhibit the binding of biotinylated heparan/heparin sulfate to the immobilised lipoprotein lipase enzyme.

[2] = system: blood triglyceride levels; experiment: Blood triglyceride levels in Fisher rats after 7 days of twice daily s.c. injection; format: in vivo; conditions: female Fisher rats, blood on day 8, control 1.43±0.13
Method: 1. Nine 10 week old female Fisher rats were treated with the sulfated mannopentaose phosphate or saline over a 7 day period as follows. On […] the rats were weighed and placed into three groups of three rats based on weight. On every subsequent morning their weights were recorded. Each morning beginning on day 1 at approximately 8.00 AM and evening at approximately 8.00 PM the rats were injected in the following manner. The control group received sterile normal saline solution 100 μl s.c. One treatment group received the sulfated mannopentaose phosphate at a dose of 10 mg/kg s.c. in an injection volume of 100 μl of sterile saline solution. Thus, each rat in this group received a total daily dose of 20 mg/kg. Animals in the second treatment group received the sulfated mannopentaose phosphate at a dose of 50 mg/kg s.c. in an injection volume of 100 μl of sterile saline solution. Thus, each rat in this group received a total daily dose of 100 mg/kg. This injection routine was repeated for a total of 7 days.
On the morning of day 8 of the experiment, the rats were anaesthetised and blood was taken for triglyceride analysis. Triglyceride levels were determined using a commercially available assay kit (Sigma, Triglyceride—GPO-Trinder). […]

[3] = system: blood triglyceride levels; experiment: Blood triglyceride levels in male and female Lewis rats after 7 days of twice daily s.c. injection; format: in vivo
Method: 2. […] Thus, on day 0 the rats were weighed and placed into three groups of the same sex, containing three rats each based on weight. On every subsequent morning their weights were recorded. Each morning beginning on day 1 at approximately 8.00 AM and each evening at approximately 8.00 PM the rats were injected in the following manner. The control groups received sterile normal saline solution 100 μl s.c. The first treatment groups of male and female rats received the sulfated mannopentaose phosphate, at a dose of 10 mg/kg s.c. in 100 μl of sterile saline solution (total daily dose 20 mg/kg). The second treatment groups of male and female rats received the sulfated mannopentaose phosphate at a dose of 50 mg/kg s.c. (total daily dose 100 mg/kg). This injection routine was repeated for a total of 7 days.
On morning of day 8 of the experiment, the rats were anaesthetised and blood was taken for triglyceride analysis. Triglyceride levels were determined using a commercially available assay kit (Sigma, Triglyceride—GPO-Tinder). […] Thus, blood triglyceride levels in the male control group averaged 1.7±0.21 mmol/L, in the […] male treatment group averaged 0.9±0.2 mmol/L and in the 100 mg/kg/day male treatment group averaged 0.3±0.0 mmol/L. Blood triglyceride levels in the female control group averaged 1.13±0.19 mmol/L, and in the 20 mg/kg/day female treatment group averaged 0.5±0.0 mmol/L and in the 100 mg/kg/day female treatment group averaged 0.17±0.03 mmol/L.

[4] = system: serum triglyceride levels; experiment: Serum triglyceride levels in mice 2 hours after a single s.c. dose (dose response); format: in vivo, CBA/h female mice; conditions: single s.c. doses of 10 mg/kg and above (10, 20, 50, 100 mg/kg), 2 hours after injection
Method: FIG. 2. Effect of different single doses of sulfated mannopentaose phosphate (PI-88) (10-100 mg/kg) on serum triglyceride levels 2 hours following s.c. injection. Data presented as group means±SEM (n=4).
Thus, 20 CBA/h female mice 8-10 weeks old were weighed and placed into five groups, containing four mice each based on weight. The control group was injected with sterile normal saline solution 100 μl s.c. The respective treatment groups were injected with sulfated mannopentaose phosphate at doses of 10, 20, 50 or 100 mg/kg s.c. in a volume of 100 μl of sterile normal saline solution. Two hours following injection, mice were anaesthetised and blood was collected via cardiac puncture and allowed to clot and serum triglyceride levels were measured using a commercially available kit (Sigma, Triglyceride—GPO-Trinder).

IC50, inhibition of binding of Biotinylated Heparin (1 μg/ml) to lipoprotein lipase ([1]; biotinylated bovine lung heparin 1 μg/ml): 1 µg/mL
IC50, inhibition of binding of Biotinylated Heparin (10 μg/ml) to lipoprotein lipase ([1]; biotinylated bovine lung heparin 10 μg/ml): 3 µg/mL
IC50, inhibition of binding of Biotinylated Heparan Sulfate (10 μg/ml) to lipoprotein lipase ([1]; biotinylated porcine mucosal heparan sulfate 10 μg/ml): 0.1 µg/mL
inhibitory activity on lipoprotein lipase binding to heparin/heparan sulfate, in words ([1]; summary of Table 1): potent inhibitors
Substance: sulfated mannopentaose phosphate [PI-88 (15 SO4/molecule)]
blood triglyceride levels ([2]; 20 mg/kg/day s.c. (10 mg/kg twice daily)): 0.3 ± 0.12 mmol/L
blood triglyceride levels ([2]; 100 mg/kg/day s.c. (50 mg/kg twice daily)): 0.1 ± 0.0 mmol/L
blood triglyceride levels ([3]; female Lewis rats, 20 mg/kg/day s.c., blood on day 8, control 1.13±0.19): 0.5 ± 0.0 mmol/L
blood triglyceride levels ([3]; female Lewis rats, 100 mg/kg/day s.c., blood on day 8, control 1.13±0.19): 0.17 ± 0.03 mmol/L
blood triglyceride levels ([3]; male Lewis rats, 100 mg/kg/day s.c., blood on day 8, control 1.7±0.21): 0.3 ± 0.0 mmol/L
blood triglyceride levels ([3]; male Lewis rats, 'mg/kg/day' group (lower dose), s.c. twice daily, blood on day 8, control 1.7±0.21): 0.9 ± 0.2 mmol/L
reduction in blood triglyceride levels, in words [4]: significant reduction
